In patent publication US20260364089A1, “PYRIDOPYRIMIDINE KRAS INHIBITORS” (Treeline Biosciences, Inc., priority 2022, published 2026):

What follows are compounds tested against T1, KRas G12V (Homo sapiens, UniProt P01116, G12V) (assay: SOS1-Catalyzed Nucleotide Exchange Assay, KRas G12V (Method 2)). Conditions: Method 2, A; 5 nM KRas G12V (aa 1-169, GDP-loaded), 50 nM SOS1; read-out: KRas G12V IC50 (nM) (Method 2, A).
T1 construct: Biotinylated KRas G12V (aa 1-169) loaded with GDP nucleotide; biotin (biotinylated)
T1 sequence (P01116 1-169 G12V): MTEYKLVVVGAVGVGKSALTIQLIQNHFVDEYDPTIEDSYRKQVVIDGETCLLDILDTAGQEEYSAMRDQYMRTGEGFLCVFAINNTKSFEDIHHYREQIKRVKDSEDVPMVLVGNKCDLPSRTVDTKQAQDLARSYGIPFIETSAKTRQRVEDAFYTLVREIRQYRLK
Format: biochemical
Description: KRas G12V [Method 2]: Compounds were pre-dispensed via Echo liquid handling (acoustic, touch-free) to generate assay ready plates (ARP). More precisely, a 10-point concentration response curve for each compound was prepared with appropriate top concentration (1 μM, 10 μM, 100 μM). Biotinylated KRas G12V (aa 1-169) loaded with GDP nucleotide and Streptavidin-Europium (SA-EU, Columbia Biosciences) were preincubated in assay buffer (20 mM HEPES pH 7.4, 150 mM NaCl, 5 mM MgCl2, 1 mM DTT, 0.01% Brij-35, 0.3 mg/mL BSA) on ice for 30 min. Separately SOS1 (aa 546-1049) and EDA-GTP-DY647P1 (Jena Bioscience) were preincubated in assay buffer on ice for 30 min. After 30 minutes of incubation for the assay components, 5 μL buffer and 5 μL of KRas G12V-SA-Eu were added to each well of the ARP. After a further 30 min, 5 μL of SOS1-EDA-GTP-D467P1 was added to start the nucleotide exchange reaction. Final concentration in the assay were 5 nM KRas G12V, 50 nM SOS1 (aa 564-1049). The reaction was allowed to proceed for 60-90 minutes after which the plate was read on a plate reader. After normalization of the raw data, the data was fit to a four-parameter logistic curve.

| IC50 [nM] | SMILES |
| --- | --- |
| ≤ 100 | O=C1CCCc2c(F)ccc3cc(O)cc(c23)-c2ccc3c(nc(OC[C@@]45CCCN4C[C@H](F)C5)nc3c2F)N2CCOCC(CCN1)C2 (stereo partly drawn) [Compound 195a, 2^8,3^7-difluoro-2^2-(((2R,7aS)-2-fluorotetrahydro-1H-pyrrolizin-7a(5H)-yl)methoxy)-3^3-hydroxy-8-aza-1(4,6)-oxazepana-2(4,7)-quinazolina-3(1,8)-naphthalenacyclodecaphan-7-one] |
| 1000 to 10000 | Nc1cc(Cl)c2c(c1)-c1c(Cl)cc3c(nc(OC[C@@]45CCCN4C[C@H](F)C5)nc3c1F)N1CCCC(O)(CCNC(=O)CCCC2)C1 (stereo partly drawn) [Compound 158a, 3^5-amino-2^6,3^3-dichloro-2^8-fluoro-2^2-(((2R,7aS)-2-fluorotetrahydro-1H-pyrrolizin-7a(5H)-yl)methoxy)-1^3-hydroxy-9-aza-2(4,7)-quinazolina-1(1,3)-piperidina-3(1,2)-benzenacycloundecaphan-8-one] |
| ≤ 100 | O=C1CCCc2c(F)ccc3cc(O)cc(c23)-c2ncc3c(nc(OC[C@@]45CCCN4C[C@H](F)C5)nc3c2F)N2CCCC(CN1)C2 (stereo partly drawn) [Compound 135a, 2^8,3^7-difluoro-2^2-(((2R,7aS)-2-fluorotetrahydro-1H-pyrrolizin-7a(5H)-yl)methoxy)-3^3-hydroxy-8-aza-2(4,7)-pyrido[4,3-d]pyrimidina-1(1,3)-piperidina-3(1,8)-naphthalenacyclononaphan-7-one] |
| 1000 to 10000 | Nc1cc(Cl)c2c(c1)-c1c(Cl)cc3c(nc(OC[C@@]45CCCN4C[C@H](F)C5)nc3c1F)N1CCCC(CCNC(=O)CCCC2)C1 (stereo partly drawn) [Compound 155a, 3^5-amino-2^6,3^3-dichloro-2^8-fluoro-2^2-(((2R,7aS)-2-fluorotetrahydro-1H-pyrrolizin-7a(5H)-yl)methoxy)-9-aza-2(4,7)-quinazolina-1(1,3)-piperidina-3(1,2)-benzenacycloundecaphan-8-one] |

Same assay, conditions: Method 2, B; 5 nM KRas G12V (aa 1-169, GDP-loaded), 50 nM SOS1; read-out: KRas G12V IC50 (nM) (Method 2, B)

| SMILES | IC50 [nM] |
| --- | --- |
| O=C1CCCc2c(F)ccc3cc(O)cc(c23)-c2ncc3c(nc(OC[C@@]45CCCN4C[C@H](F)C5)nc3c2F)N2CCOCC(CN1)C2 (stereo partly drawn) [Compound 173a, 2^8,3^7-difluoro-2^2-(((2R,7aS)-2-fluorotetrahydro-1H-pyrrolizin-7a(5H)-yl)methoxy)-3^3-hydroxy-8-aza-1(4,6)-oxazepana-2(4,7)-pyrido[4,3-d]pyrimidina-3(1,8)-naphthalenacyclononaphan-7-one] | ≤ 100 |
| O=C1CCCc2c(F)ccc3cc(O)cc(c23)-c2ncc3c(nc(OC[C@@]45CCCN4C[C@H](F)C5)nc3c2F)N2CCCC(O)(CCN1)C2 (stereo partly drawn) [Compound 136a, 2^8,3^7-difluoro-2^2-(((2R,7aS)-2-fluorotetrahydro-1H-pyrrolizin-7a(5H)-yl)methoxy)-1^3,3^3-dihydroxy-8-aza-2(4,7)-pyrido[4,3-d]pyrimidina-1(1,3)-piperidina-3(1,8)-naphthalenacyclodecaphan-7-one] | ≤ 100 |
| O=C1CCCCc2c(Cl)cc(O)cc2-c2ncc3c(nc(OC[C@@]45CCCN4C[C@H](F)C5)nc3c2F)N2CCCC(O)(CCN1)C2 (single isomer, unassigned) [Compound 140c] | ≤ 100 |
| O=C1CCCc2c(F)ccc3cc(O)cc(c23)-c2ccc3c(nc(OC[C@@]45CCCN4C[C@H](F)C5)nc3c2F)N2CCCC(CCN1)C2 (stereo partly drawn) [Compound 175a, 2^8,3^7-difluoro-2^2-(((2R,7aS)-2-fluorotetrahydro-1H-pyrrolizin-7a(5H)-yl)methoxy)-3^3-hydroxy-8-aza-2(4,7)-quinazolina-1(1,3)-piperidina-3(1,8)-naphthalenacyclodecaphan-7-one] | ≤ 100 |
| O=C1CCCCc2ccc3[nH]ncc3c2-c2ccc3c(nc(OC[C@@]45CCCN4C[C@H](F)C5)nc3c2F)N2CCCC(CCN1)C2 (stereo partly drawn) [Compound 166a, 2^8-fluoro-2^2-(((2R,7aS)-2-fluorotetrahydro-1H-pyrrolizin-7a(5H)-yl)methoxy)-1^1H-6-aza-2(7,4)-quinazolina-1(4,5)-indazola-3(1,3)-piperidinacycloundecaphan-7-one] | ≤ 100 |
| Nc1cc2c(c(Cl)c1F)CCCCC(=O)NCCC1CCCN(C1)c1nc(OC[C@@]34CCCN3C[C@H](F)C4)nc3c(F)c-2ncc13 (stereo partly drawn) [Compound 172a, 3^5-amino-3^3-chloro-2^8,3^4-difluoro-2^2-(((2R,7aS)-2-fluorotetrahydro-1H-pyrrolizin-7a(5H)-yl)methoxy)-9-aza-2(4,7)-pyrido[4,3-d]pyrimidina-1(1,3)-piperidina-3(1,2)-benzenacycloundecaphan-8-one] | ≤ 100 |
| Nc1cc(Cl)c2c(c1)-c1ncc3c(nc(OCC4(CN5CCOCC5)CC4)nc3c1F)N1CCCC(CCNC(=O)CCCC2)C1 (stereo not shown) [Compound 177, 3^5-amino-3^3-chloro-2^8-fluoro-2^2-((1-(morpholinomethyl)cyclopropyl)methoxy)-9-aza-2(4,7)-pyrido[4,3-d]pyrimidina-1(1,3)-piperidina-3(1,2)-benzenacycloundecaphan-8-one] | 100 to 1000 |
| Nc1cc(Cl)c2c(c1)-c1ccc3c(nc(OC[C@@]45CCCN4C[C@H](F)C5)nc3c1F)N1CCCC(CCNC(=O)CCCC2)C1 (stereo partly drawn) [Compound 165a, 3^5-amino-3^3-chloro-2^8-fluoro-2^2-(((2R,7aS)-2-fluorotetrahydro-1H-pyrrolizin-7a(5H)-yl)methoxy)-9-aza-2(4,7)-quinazolina-1(1,3)-piperidina-3(1,2)-benzenacycloundecaphan-8-one] | ≤ 100 |
| Nc1cc2c(c(Cl)c1F)CCCCC(=O)NCCC1CCCN(C1)c1nc(OC[C@@]34CCCN3C[C@H](F)C4)nc3c(F)c-2ccc13 (stereo partly drawn) [Compound 174a, 3^5-amino-3^3-chloro-2^8,3^4-difluoro-2^2-(((2R,7aS)-2-fluorotetrahydro-1H-pyrrolizin-7a(5H)-yl)methoxy)-9-aza-2(4,7)-quinazolina-1(1,3)-piperidina-3(1,2)-benzenacycloundecaphan-8-one] | 100 to 1000 |
| Nc1cc2c(cc1F)CCCCC(=O)NCCC1CCCN(C1)c1nc(OC[C@@]34CCCN3C[C@H](F)C4)nc3c(F)c-2ncc13 (single isomer, unassigned) [Compound 159c] | 10000 to 30000 |

Next, values leading:

| IC50 [nM] | SMILES |
| --- | --- |
| 100 to 1000 | Nc1cc(Cl)c2c(c1)-c1ncc3c(nc(OC[C@@]45CCCN4C[C@H](F)C5)nc3c1F)N1C[C@H](F)C[C@H](C1)NC(=O)CCCC2 [Compound 201a, (1^3R,1^5R)-3^5-amino-3^3-chloro-1^5,2^8-difluoro-2^2-(((2R,7aS)-2-fluorotetrahydro-1H-pyrrolizin-7a(5H)-yl)methoxy)-9-aza-2(4,7)-pyrido[4,3-d]pyrimidina-1(1,3)-piperidina-3(1,2)-benzenacyclononaphan-8-one] |
| ≤ 100 | O=C1CCCc2c(F)ccc3cc(O)cc(c23)-c2ccc3c(nc(OC[C@@]45CCCN4C[C@H](F)C5)nc3c2F)N2CCOCC(CCN1)C2 (stereo partly drawn) [Compound 195a, 2^8,3^7-difluoro-2^2-(((2R,7aS)-2-fluorotetrahydro-1H-pyrrolizin-7a(5H)-yl)methoxy)-3^3-hydroxy-8-aza-1(4,6)-oxazepana-2(4,7)-quinazolina-3(1,8)-naphthalenacyclodecaphan-7-one] |
| 100 to 1000 | Nc1cc2c(c(Cl)c1F)CCCCC(=O)NCCC1(O)CCCN(C1)c1nc(OC[C@@]34CCCN3C[C@H](F)C4)nc3c(F)c-2ccc13 (stereo partly drawn) [Compound 180a, 3^5-amino-3^3-chloro-2^8,3^4-difluoro-2^2-(((2R,7aS)-2-fluorotetrahydro-1H-pyrrolizin-7a(5H)-yl)methoxy)-13-hydroxy-9-aza-2(4,7)-quinazolina-1(1,3)-piperidina-3(1,2)-benzenacycloundecaphan-8-one] |
| ≤ 100 | CN(C)CC1(COc2nc3c4ccc(c(F)c4n2)-c2c(c(Cl)cc4[nH]ncc24)CCCCC(=O)NCCC2CCCN3C2)CC1 (single isomer, unassigned) [Compound 197b, 1^6-chloro-2^2-((1-((dimethylamino)methyl)cyclopropyl)methoxy)-2^8-fluoro-1^1H-6-aza-2(7,4)-quinazolina-1(4,5)-indazola-3(1,3)-piperidinacycloundecaphan-7-one] |
| 10000 to 30000 | Nc1cc2c(c(Cl)n1)CCCCC(=O)NCCC1(O)CCCN(C1)c1nc(OC[C@@]34CCCN3C[C@H](F)C4)nc3c(F)c-2c(F)cc13 (single isomer, unassigned) [Compound 188a] |
| ≤ 100 | O=C1CCCCc2c(Cl)cc3[nH]ncc3c2-c2c(F)cc3c(nc(OC[C@@]45CCCN4C[C@H](F)C5)nc3c2F)N2CCOCC(CN1)C2 (stereo partly drawn) [Compound 200a, 3^6-chloro-2^6,2^8-difluoro-2^2-(((2R,7aS)-2-fluorotetrahydro-1H-pyrrolizin-7a(5H)-yl)methoxy)-3^1H-9-aza-1(4,6)-oxazepana-2(4,7)-quinazolina-3(4,5)-indazolacyclodecaphan-8-one] |
| ≤ 100 | O=C1CCCCc2c(Cl)cc3[nH]ncc3c2-c2ccc3c(nc(OC[C@@]45CCCN4C[C@H](F)C5)nc3c2F)N2CCCC(CCN1)C2 (single isomer, unassigned) [Compound 202b] |
| 100 to 1000 | Nc1cc2c(c(Cl)n1)CCCCC(=O)NCCC1CCCN(C1)c1nc(OC[C@@]34CCCN3C[C@H](F)C4)nc3c(F)c-2ncc13 (stereo partly drawn) [Compound 186a, 1^6-amino-1^2-chloro-2^8-fluoro-2^2-(((2R,7aS)-2-fluorotetrahydro-1H-pyrrolizin-7a(5H)-yl)methoxy)-6-aza-2(7,4)-pyrido[4,3-d]pyrimidina-1(4,3)-pyridina-3(1,3)-piperidinacycloundecaphan-7-one] |
